Patent US11358962B2, “2-hetaryl imidazol[1,2-a]pyridine derivatives” (Hoffmann-La Roche Inc., priority 2013, dated 2022)
Counter-ions that a name gives are not always drawn.

Test system: native tau aggregates
Experiment: TAU radioligand in vitro displacement assay ([3H]T808, autoradiography on human AD brain sections)
Format: binding
Conditions: compound 10 nM, radioligand [3H]T808 10 nM
Procedure, shortened: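 Displacement of 10 nM [3H]T808 from 10 μm human AD brain cryosections by test compounds at various concentrations, 30 min at room temperature in 50 mM Tris pH 7.4, then cold washes. Autoradiography after 5-day exposure; specific binding = ROI signal minus white-matter signal, expressed as % displacement.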

| SMILES | % displacement of [3H]T808 (10 nM) at 10 nM |
| --- | --- |
| CNc1ccn2cc(-c3cccnc3)nc2c1 [Example 126, Methyl-(2-pyridin-3-yl-imidazo[1,2-a]pyridin-7-yl)-amine] | 12% |
| CNc1ccn2cc(-c3ccc(Cl)s3)nc2c1 [Example 127, N-[2-(5-Chloro-thiophen-2-yl)-imidazo[1,2-a]pyridin-7-yl]-methyl-amine] | 26% |
| CNc1ccn2cc(-c3cc(C)ccc3O)nc2c1 [Example 128, 4-Methyl-2-(7-methylamino-imidazo[1,2-a]pyridin-2-yl)-phenol] | 34% |
| CNc1ccn2cc(-c3cnn(C)c3)nc2c1 [Example 129, Methyl-[2-(1-methyl-1H-pyrazol-4-yl)-imidazo[1,2-a]pyridin-7-yl]-amine] | 50% |
| COc1ccc(-c2cn3ccc(N4CC4C)cc3n2)cc1 (centres unmarked) [Example 138, 2-(4-methoxyphenyl)-7-(2-methylaziridin-1-yl)imidazo[1,2-a]pyridine] | 44% |
| CNc1ccn2cc(-c3cccc(OCCCF)c3)nc2c1 [Example 139, 2-(3-(3-fluoropropoxy)phenyl)-N-methylimidazo[1,2-a]pyridin-7-amine] | 5% |
| FCCOc1cccc(-c2cn3ccc(N4CCC4)cc3n2)c1 [Example 140, 7-(azetidin-1-yl)-2-(3-(2-fluoroethoxy)phenyl)imidazo[1,2-a]pyridine] | 23% |
| CNc1ccn2cc(-c3ccc(N4CCC(F)CC4)cc3)nc2c1 [Example 141, 2-(4-(4-fluoropiperidin-1-yl)phenyl)-N-methylimidazo[1,2-a]pyridin-7-amine] | 35% |
| FCCNc1ccn2cc(-c3ccc4c(c3)OCCO4)nc2c1 [Example 143, 2-(2,3-dihydrobenzo[b][1,4]dioxin-6-yl)-N-(2-fluoroethyl)imidazo[1,2-a]pyridin-7-amine] | 23% |
| FCCOCCOc1ccc(-c2cn3ccc(N4CCC4)cc3n2)cc1 [Example 144, 7-(azetidin-1-yl)-2-(4-(2-(2-fluoroethoxy)ethoxy)phenyl)imidazo[1,2-a]pyridine] | 27% |
| Oc1cccc(-c2cn3ccc(NCCF)cc3n2)c1 [Example 146, 3-(7-(2-fluoroethylamino)imidazo[1,2-a]pyridin-2-yl)phenol] | 33% |
| FCCNc1ccn2cc(-c3ccc(N4CCOCC4)cc3)nc2c1 [Example 147, N-(2-Fluoroethyl)-2-(4-morpholin-4-ylphenyl)imidazo[1,2-a]pyridin-7-amine] | 23% |
| FCCNc1ccn2cc(-c3ccco3)nc2c1 [Example 149, N-(2-Fluoroethyl)-2-(furan-2-yl)imidazo[1,2-a]pyridin-7-amine] | 23% |

Further lines, results first:

| % displacement of [3H]T808 (10 nM) at 10 nM | SMILES |
| --- | --- |
| 20% | CNc1ccn2cc(-c3cccc(C(=O)OC)c3)nc2c1 [Example 122, Methyl 3-[7-(methylamino)imidazo[1,2-a]pyridin-2-yl]benzoate] |
| 23% | CNc1ccn2cc(-c3cccc(CO)c3)nc2c1 [Example 123, [3-[7-(Methylamino)imidazo[1,2-a]pyridin-2-yl]phenyl]methanol] |
| 39% | FCCOc1ccc(-c2cn3ccc(NC4CC4)cc3n2)cc1 [Example 124, N-Cyclopropyl-2-[4-(2-fluoroethoxy)phenyl]imidazo[1,2-a]pyridin-7-amine] |
| 32% | FCCCOc1ccc(-c2cn3ccc(N4CCC4)cc3n2)cc1 [Example 125, 7-(Azetidin-1-yl)-2-[4-(3-fluoropropoxy)phenyl]imidazo[1,2-a]pyridine] |
| 40% | CNc1ccn2cc(-c3cccc(COC)c3)nc2c1 [Example 130, 2-[3-(Methoxymethyl)phenyl]-N-methyl-imidazo[1,2-a]pyridine-7-amine HCl adduct] |
| 43% | CNc1ccn2cc(-c3ccc(NCCF)cc3)nc2c1 [Example 131, 2-(4-(2-fluoroethylamino)phenyl)-N-methylimidazo[1,2-a]pyridin-7-amine] |
| 38% | COc1ccc(-c2cn3ccc(NCCCF)cc3n2)cc1 [Example 132, N-(3-fluoropropyl)-2-(4-methoxyphenyl)imidazo[1,2-a]pyridin-7-amine] |
| 40% | CNc1ccn2cc(-c3cccc(OCF)c3)nc2c1 [Example 133, 2-(3-(fluoromethoxy)phenyl)-N-methylimidazo[1,2-a]pyridin-7-amine] |
| 21% | COc1ccc(-c2cn3ccc(NC(C)CO)cc3n2)cc1 (centres unmarked) [Example 134, 2-(2-(4-methoxyphenyl)imidazo[1,2-a]pyridin-7-ylamino)propan-1-ol] |
| 14% | COc1cc(-c2cn3ccc(NCCF)cc3n2)ccc1C [Example 135, N-(2-fluoroethyl)-2-(3-methoxy-4-methylphenyl)imidazo[1,2-a]pyridin-7-amine] |
| 20% | CNc1ccn2cc(-c3cccc(SC)c3)nc2c1 [Example 136, N-methyl-2-(3-(methylthio)phenyl)imidazo[1,2-a]pyridin-7-amine] |
| 41% | CNc1ccn2cc(-c3cccc(OCCF)c3)nc2c1 [Example 137, 2-(3-(2-fluoroethoxy)phenyl)-N-methylimidazo[1,2-a]pyridin-7-amine] |
| 11% | COc1cc(-c2cn3ccc(NCCF)cc3n2)ccc1O [Example 142, 4-(7-(2-fluoroethylamino)imidazo[1,2-a]pyridin-2-yl)-2-methoxyphenol] |
| 29% | Oc1ccc(-c2cn3ccc(NCCF)cc3n2)cc1 [Example 145, 4-(7-(2-fluoroethylamino)imidazo[1,2-a]pyridin-2-yl)phenol] |
| 20% | FCCCOc1ccc(-c2cn3ccc(NC4CC4)cc3n2)cc1 [Example 148, N-Cyclopropyl-2-[4-(3-fluoropropoxy)phenyl]imidazo[1,2-a]pyridin-7-amine] |

Test system: tau aggregates
Experiment: Autoradiography of tritiated radioligands on human cortical brain sections (Braak V AD patient)
Format: binding
Conditions: radioligand 1.8 (ex. 62), 2.8 (ex. 64), 3.7 (ex. 61), 2.7 nM (ex. 63)
Protocol: The radioligand concentrations were 1.8, 2.8, 3.7 and 2.7 nM, respectively.

| SMILES | autoradiogram staining pattern |
| --- | --- |
| [3H]CNc1ccn2cc(-c3ccc(OCF)cc3)nc2c1 [Example 61, [^3H]-[2-(4-Fluoromethoxy-phenyl)-imidazo[1,2-a]pyridin-7-yl]-methyl-amine] | punctate staining of tau aggregates in a layered distribution pattern |
